Source: US20250206732A1, “COMPOUNDS AND METHODS FOR THE TARGETED DEGRADATION OF KRAS” (Arvinas Operations, Inc., priority 2022, published 2025)

Target: T1, AsPC-1 HiBiT-KRASG12D (Homo sapiens, UniProt P01116, G12D)
T1 construct: insert the HiBiT tag onto the N-terminus of one or more of the endogenous KRAS alleles; endogenous in cells; host or cells: AsPC-1 (ATCC CRL-1682), CRISPR-Cas9 knock-in clone, one tagged allele
Assay: HiBiT degradation assay (G12D), AsPC-1 HiBiT-KRASG12D cells
Format: cell-based
Settings: 24 hours treatment; for Dmax: ASPC1, AsPC-1 HiBiT-KRASG12D cells, maximum degradation observed; for DC50: AsPC-1 HiBiT-KRASG12D cells, HiBiT luminescence
How it was run: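 AsPC-1 cells (homozygous G12D) carrying a CRISPR knock-in N-terminal HiBiT tag on endogenous KRAS were treated with compounds for 24 hours at 37° C, 5% CO2, in triplicate. Alamar blue viability was read first, then cells were washed and lysed with Nano-Glo HiBiT reagent for 45 minutes before luminescence reading.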

T1 sequence (P01116 1-188 isoform P01116-2 G12D): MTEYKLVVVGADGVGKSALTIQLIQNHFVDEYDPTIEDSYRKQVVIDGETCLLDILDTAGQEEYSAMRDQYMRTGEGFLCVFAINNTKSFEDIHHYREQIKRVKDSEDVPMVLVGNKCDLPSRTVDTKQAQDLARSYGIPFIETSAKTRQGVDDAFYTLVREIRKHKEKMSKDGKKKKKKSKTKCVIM

SMILES: C#Cc1c(F)ccc2cccc(-c3ncc4c(N5CC6CCC(C5)N6)nc(OC[C@]56CCCN5[C@H](COC(=O)N5CCN(c7cc(C(C(=O)N8C[C@H](O)C[C@H]8C(=O)N[C@@H](C)c8ccc(-c9scnc9C)cc8)C(C)C)on7)CC5)CC6)nc4c3F)c12 (single isomer, unassigned) [Compound 270, [(3S,7aR)-7a-{[(4-{3,8-diazabicyclo[3.2.1]octan-3-yl}-7-(8-ethynyl-7-fluoronaphthalen-1-yl)-8-fluoropyrido[4,3-d]pyrimidin-2-yl)oxy]methyl}-hexahydro-1H-pyrrolizin-3-yl]methyl 4-{5-[(2R*)-1-[(2S,4R)-4-hydroxy-2-{[(1S)-1-[4-(4-methyl-1,3-thiazol-5-yl)phenyl]ethyl]carbamoyl}pyrrolidin-1-yl]-3-methyl-1-oxobutan-2-yl]-1,2-oxazol-3-yl}piperazine-1-carboxylate]
- Dmax: 80 to 100%
- DC50: < 600 nM

SMILES: CCc1cccc2cc(O)cc(-c3ncc4c(N5CC6CCC(C5)N6)nc(OC[C@@H]5CC[C@H](COC(=O)N6CCN(c7cc([C@H](C(=O)N8C[C@H](O)C[C@H]8C(=O)N[C@@H](C)c8ccc(-c9scnc9C)cc8)C(C)C)on7)CC6)N5C)nc4c3F)c12 [Compound 259, [(2R,5S)-5-{[(4-{3,8-diazabicyclo[3.2.1]octan-3-yl}-7-(8-ethyl-3-hydroxynaphthalen-1-yl)-8-fluoropyrido[4,3-d]pyrimidin-2-yl)oxy]methyl}-1-methylpyrrolidin-2-yl]methyl 4-{5-[(2R)-1-[(2S,4R)-4-hydroxy-2-{[(1S)-1-[4-(4-methyl-1,3-thiazol-5-yl)phenyl]ethyl]carbamoyl}pyrrolidin-1-yl]-3-methyl-1-oxobutan-2-yl]-1,2-oxazol-3-yl}piperazine-1-carboxylate]
- Dmax: 80 to 100%
- DC50: < 600 nM

SMILES: C#Cc1c(F)ccc2cc(O)cc(-c3ncc4c(N5CC6CCC(C5)N6)nc(OCCN5CCC(CC6CCN(c7cc([C@@H](C(=O)N8C[C@H](O)C[C@H]8C(=O)N[C@@H](C)c8ccc(-c9scnc9C)cc8)C(C)C)on7)CC6)CC5)nc4c3F)c12 (single isomer, unassigned) [Compound 308]
- Dmax: 60 to 80%
- DC50: < 600 nM

SMILES: CCc1cccc2cc(O)cc(-c3ncc4c(N5CCCCCC5)nc(OC[C@]56CCCN5[C@H](COc5cc([C@H](C(=O)N7C[C@H](O)C[C@H]7C(=O)N[C@@H](C)c7ccc(-c8scnc8C)cc7)C(C)C)on5)CC6)nc4c3F)c12 [Compound 208, (2S,4R)-1-[(2R)-2-(3-{[(3S,7aR)-7a-({[4-(azepan-1-yl)-7-(8-ethyl-3-hydroxynaphthalen-1-yl)-8-fluoropyrido[4,3-d]pyrimidin-2-yl]oxy}methyl)-hexahydro-1H-pyrrolizin-3-yl]methoxy}-1,2-oxazol-5-yl)-3-methylbutanoyl]-4-hydroxy-N-[(1S)-1-[4-(4-methyl-1,3-thiazol-5-yl)phenyl]ethyl]pyrrolidine-2-carboxamide]
- Dmax: 80 to 100%
- DC50: < 600 nM

SMILES: CCc1cccc2cc(O)cc(-c3ncc4c(N5CC6CCC(C5)N6)nc(OC[C@H]5CC[C@@]6(COC(=O)N7CCN(c8cc([C@H](C(=O)N9C[C@H](O)C[C@H]9C(=O)N[C@@H](C)c9ccc(-c%10scnc%10C)cc9)C(C)C)on8)CC7)CCCN56)nc4c3F)c12 [Compound 343, [(3R,8R)-3-[[4-(3,8-diazabicyclo[3.2.1]octan-3-yl)-7-(8-ethyl-3-hydroxy-1-naphthyl)-8-fluoro-pyrido[4,3-d]pyrimidin-2-yl]oxymethyl]-1,2,3,5,6,7-hexahydropyrrolizin-8-yl]methyl 4-[5-[(1R)-1-[(2S,4R)-4-hydroxy-2-[[(1S)-1-[4-(4-methylthiazol-5-yl)phenyl]ethyl]carbamoyl]pyrrolidine-1-carbonyl]-2-methyl-propyl]isoxazol-3-yl]piperazine-1-carboxylate]
- Dmax: 80 to 100%
- DC50: < 600 nM

SMILES: CCc1cccc2cc(O)cc(-c3ncc4c(N5CC6CCC(C5)N6)nc(OCCN5CCC(OC6CN(c7cc([C@H](C(=O)N8C[C@H](O)C[C@H]8C(=O)N[C@@H](C)c8ccc(-c9scnc9C)cc8)C(C)C)on7)C6)CC5)nc4c3F)c12 [Compound 215, (2S,4R)-1-[(2R)-2-(3-{3-[(1-{2-[(4-{3,8-diazabicyclo[3.2.1]octan-3-yl}-7-(8-ethyl-3-hydroxynaphthalen-1-yl)-8-fluoropyrido[4,3-d]pyrimidin-2-yl)oxy]ethyl}piperidin-4-yl)oxy]azetidin-1-yl}-1,2-oxazol-5-yl)-3-methylbutanoyl]-4-hydroxy-N-[(1S)-1-[4-(4-methyl-1,3-thiazol-5-yl)phenyl]ethyl]pyrrolidine-2-carboxamide]
- Dmax: 80 to 100%
- DC50: < 600 nM

SMILES: CCc1cccc2cc(O)cc(-c3ncc4c(N5C[C@H]6CC[C@@H](C5)N6)nc(OC[C@@H]5CC[C@@H](COC(=O)N6CC7(C6)CN(c6cc([C@H](C(=O)N8C[C@H](O)C[C@H]8C(=O)N[C@@H](C)c8ccc(-c9scnc9C)cc8)C(C)C)on6)C7)N5C)nc4c3F)c12 [Compound 256, ((2S,5S)-5-(((4-((1R,5S)-3,8-diazabicyclo[3.2.1]octan-3-yl)-7-(8-ethyl-3-hydroxynaphthalen-1-yl)-8-fluoropyrido[4,3-d]pyrimidin-2-yl)oxy)methyl)-1-methylpyrrolidin-2-yl)methyl 6-(5-((R)-1-((2S,4R)-4-hydroxy-2-(((S)-1-(4-(4-methylthiazol-5-yl)phenyl)ethyl)carbamoyl)pyrrolidin-1-yl)-3-methyl-1-oxobutan-2-yl)isoxazol-3-yl)-2,6-diazaspiro[3.3]heptane-2-carboxylate]
- Dmax: 80 to 100%
- DC50: < 600 nM

SMILES: CCc1cccc2cc(O)cc(-c3ncc4c(N5CC6CCC(C5)N6C=O)nc(OCCN5CCC(CC6CN(c7cc([C@@H](C(=O)N8C[C@H](O)C[C@H]8C(=O)N[C@@H](C)c8ccc(-c9scnc9C)cc8)C(C)C)on7)C6)CC5)nc4c3F)c12 [Compound 247]
- DC50: > 3000 nM

SMILES: C#Cc1c(F)ccc2cc(O)cc(-c3ncc4c(N5CC6CCC(C5)N6)nc(OCCN5CCC6(CC5)CN(c5cc([C@@H](C(=O)N7C[C@H](O)C[C@H]7C(=O)N[C@@H](C)c7ccc(-c8ccnn8C)cc7)C(C)C)on5)C6)nc4c3F)c12 (relative stereo) [Compound 84, (2S,4R)-1-[(2R*)-2-[3-(7-{2-[(4-{3,8-diazabicyclo[3.2.1]octan-3-yl}-7-(8-ethynyl-7-fluoro-3-hydroxynaphthalen-1-yl)-8-fluoropyrido[4,3-d]pyrimidin-2-yl)oxy]ethyl}-2,7-diazaspiro[3.5]nonan-2-yl)-1,2-oxazol-5-yl]-3-methylbutanoyl]-4-hydroxy-N-[(1S)-1-[4-(1-methyl-1H-pyrazol-5-yl)phenyl]ethyl]pyrrolidine-2-carboxamide]
- Dmax: 60 to 80%
- DC50: 1000 to 3000 nM

SMILES: CCc1cccc2cc(O)cc(-c3ncc4c(N5CC6CCC(C5)N6)nc(OCCN5CCC(C(C)(C)N6CCN(c7cc([C@H](C(=O)N8C[C@H](O)C[C@H]8C(=O)N[C@@H](C)c8ccc(-c9scnc9C)cc8)C(C)C)on7)CC6)CC5)nc4c3F)c12 [Compound 186, (2S,4R)-1-[(2R)-2-(3-{4-[2-(1-{2-[(4-{3,8-diazabicyclo[3.2.1]octan-3-yl}-7-(8-ethyl-3-hydroxynaphthalen-1-yl)-8-fluoropyrido[4,3-d]pyrimidin-2-yl)oxy]ethyl}piperidin-4-yl)propan-2-yl]piperazin-1-yl}-1,2-oxazol-5-yl)-3-methylbutanoyl]-4-hydroxy-N-[(1S)-1-[4-(4-methyl-1,3-thiazol-5-yl)phenyl]ethyl] pyrrolidine-2-carboxamide]
- Dmax: 80 to 100%
- DC50: < 600 nM

SMILES: C#Cc1c(F)ccc2cc(O)cc(-c3ncc4c(N5CC6CCC(C5)N6)nc(OCCN5CCC(F)(COc6cc([C@@H](C(=O)N7C[C@H](O)C[C@H]7C(=O)N[C@@H](C)c7ccc(-c8scnc8C)cc7)C(C)C)on6)CC5)nc4c3F)c12 [Compound 154, (2S,4R)-1-[(2S)-2-{3-[(1-{2-[(4-{3,8-diazabicyclo[3.2.1]octan-3-yl}-7-(8-ethynyl-7-fluoro-3-hydroxynaphthalen-1-yl)-8-fluoropyrido[4,3-d]pyrimidin-2-yl)oxy]ethyl}-4-fluoropiperidin-4-yl)methoxy]-1,2-oxazol-5-yl}-3-methylbutanoyl]-4-hydroxy-N-[(1S)-1-[4-(4-methyl-1,3-thiazol-5-yl)phenyl]ethyl]pyrrolidine-2-carboxamide]
- Dmax: 80 to 100%
- DC50: < 600 nM

SMILES: CCc1cccc2cc(O)cc(-c3ncc4c(N5CC6CCC(C5)N6)nc(OCCN5CCC(F)(CN6CCN(c7cc([C@@H](C(=O)N8C[C@H](O)C[C@H]8C(=O)N[C@@H](C)c8ccc(-c9scnc9C)cc8)C(C)C)on7)[C@@H](C)C6)CC5)nc4c3F)c12 [Compound 203, (2S,4R)-1-[(2S)-2-{3-[(2S)-4-[(1-{2-[(4-{3,8-diazabicyclo[3.2.1]octan-3-yl}-7-(8-ethyl-3-hydroxynaphthalen-1-yl)-8-fluoropyrido[4,3-d]pyrimidin-2-yl)oxy]ethyl}-4-fluoropiperidin-4-yl)methyl]-2-methylpiperazin-1-yl]-1,2-oxazol-5-yl}-3-methylbutanoyl]-4-hydroxy-N-[(1S)-1-[4-(4-methyl-1,3-thiazol-5-yl)phenyl]ethyl]pyrrolidine-2-carboxamide]
- Dmax: 20 to 60%
- DC50: 1000 to 3000 nM

SMILES: CCc1cccc2cc(O)cc(-c3ncc4c(N5CC6CCC(C5)N6)nc(OCCN5CCC(N(C)c6cc([C@H](C(=O)N7C[C@H](O)C[C@H]7C(=O)N[C@@H](C)c7ccc(-c8scnc8C)cc7)C(C)C)on6)CC5)nc4c3F)c12 (relative stereo) [Compound 135, (2S,4R)-1-[(2R*)-2-{3-[(1-{2-[(4-{3,8-diazabicyclo[3.2.1]octan-3-yl}-7-(8-ethyl-3-hydroxynaphthalen-1-yl)-8-fluoropyrido[4,3-d]pyrimidin-2-yl)oxy]ethyl}piperidin-4-yl)(methyl)amino]-1,2-oxazol-5-yl}-3-methylbutanoyl]-4-hydroxy-N-[(1S)-1-[4-(4-methyl-1,3-thiazol-5-yl)phenyl]ethyl]pyrrolidine-2-carboxamide]
- Dmax: 80 to 100%
- DC50: < 600 nM
